Values after ≈ are worked out from the molar mass of the structure shown. Where two headings read alike, the source gives them in different places.
Key:
[1] = test system: L. reuteri ATCC 55730; assay: MIC on MRS plates containing lincomycin or clindamycin; format: cell-based, Lactobacillus reuteri; settings: Limosilactobacillus reuteri, ATCC55730, strain ATCC 55730, anaerobic, 37° C., 24 h
Description: (§1) The bacteria were grown in MRS broth for 16 h at 37° C. […] After adsorption of the drops, the plates were incubated in anaerobic atmosphere at 37° C. for 24 h. The MIC was defined as the lowest antibiotic concentration for which there was no visible bacterial growth.

[2] = test system: L. reuteri DSM 17686; assay: as above; format: cell-based, Lactobacillus reuteri; settings: 37° C., 24 h
Description: as §1

[3] = test system: L. reuteri DSM 17938; assay: as above; format: cell-based, Lactobacillus reuteri; settings: strain DSM 17938, anaerobic, 37° C.
Description: as §1

[4] = test system: L. reuteri DSM 20016; assay: as above; format: cell-based, Lactobacillus reuteri; settings: Limosilactobacillus reuteri, DSM20016, strain DSM 20016 (negative control), anaerobic, 37° C., 24 h
Description: as §1

[5] = test system: 1063; assay: as above; format: cell-based; settings: strain 1063, anaerobic, 37° C., 24 h
Description: as §1

[6] = test system: L. reuteri ATCC 55730; assay: MIC to tetracycline with Etest; format: cell-based, Lactobacillus reuteri; settings: Limosilactobacillus reuteri, ATCC55730; strain ATCC 55730; MRS agar; read-out: MIC to tetracycline (E-test)
Description: (§2) The bacteria were grown in MRS broth for 16 h at 37° C. After dilution to 10^5 cfu ml^−1, 1 μl of each bacterial strain was spotted on MRS plates containing lincomycin or clindamycin (concentrations 0, 0.125, 0.25, 0.5, 1, 2, 4, 8 and 16 μg ml^−1). After adsorption of the drops, the plates were incubated in anaerobic atmosphere at 37° C. for 24 h. The MIC was defined as the lowest antibiotic concentration for which there was no visible bacterial growth. MICs to tetracycline were tested with Etest (AB Biodisk) on bacteria growing on MRS agar (Oxoid) plates according to the instructions from the manufacturer.

[7] = test system: L. reuteri DSM 17686; assay: MIC to tetracycline with Etest; format: cell-based, Lactobacillus reuteri; settings: strain DSM 17686; MRS agar
Description: as §2

[8] = test system: L. reuteri DSM 17938; assay: MIC to tetracycline with Etest; format: cell-based, Lactobacillus reuteri; settings: strain DSM 17938; MRS agar
Description: as §2

[9] = Limosilactobacillus reuteri, DSM17686, strain DSM 17686, anaerobic, read-out: MIC
[10] = Limosilactobacillus reuteri, DSM17938, 24 h, read-out: MIC

Row | MIC [1] | MIC [2, 9] | MIC [3, 10] | MIC [4] | MIC [5] | MIC ([2]; strain DSM 17686, anaerobic) | MIC ([3]; 24 h) | Structure (SMILES) | MIC [6] | MIC to tetracycline (E-test) [7] | MIC to tetracycline (E-test) [8]
1 | < 0.125 µg/mL | < 0.125 µg/mL | < 0.125 µg/mL | < 0.125 µg/mL | > 16 µg/mL | – | – | CCC[C@@H]1C[C@@H](C(=O)N[C@@H]([C@H]2O[C@H](SC)[C@H](O)[C@@H](O)[C@H]2O)[C@H](C)Cl)N(C)C1 [clindamycin] | – | – | –
2 | > 16 µg/mL | > 16 µg/mL | 0.25 µg/mL (≈ 0.615 µM) | 0.25 µg/mL (≈ 0.615 µM) | > 16 µg/mL | >16 µg/mL | 0.5 µg/mL (≈ 1.23 µM) | CCC[C@@H]1C[C@@H](C(=O)N[C@@H]([C@H]2O[C@H](SC)[C@H](O)[C@@H](O)[C@H]2O)[C@@H](C)O)N(C)C1 [lincomycin] | – | – | –
3 | – | – | – | – | – | – | – | CN(C)[C@@H]1C(O)=C(C(N)=O)C(=O)[C@@]2(O)C(O)=C3C(=O)c4c(O)cccc4[C@@](C)(O)[C@H]3C[C@@H]12 [tetracycline] | > 256 µg/mL | 12-16 μml-1 | 12-16 μml-1

— patent US8603460B2, “Method of making a Lactobacillus reuteri with increased acid tolerance” (Brogaia AB, priority 2006, dated 2013)
